# From patent publication US20040038888A1 (priority 2002, published 2004)
# Assays:
# primary adult NSC [1] = assay: Culture of neurospheres for counting and photographing; assay type: cell-based, mouse; details: PACAP 100 nM in place of EGF, 7 days, versus control
# Description: Anterior lateral wall of the lateral ventricle was dissociated as described in Example 2 (Method A), and the cells resuspended in Neurosphere medium without EGF. The cell suspension was divided into a 24-well plate with triplicates of control (no addition), PACAP treated and EGF (1 nM) treated cells. The final concentration of PACAP was 100 nM. After 7 days the spheres were counted and photographed using a Nikon Eclipse TE300 microscope and Nikon Spot Insight camera.
# primary adult NSC [2] = assay: Self renewal and multipotency assay; assay type: cell-based, mouse; details: PACAP 100 nM
# Description: Anterior lateral wall of the lateral ventricle was dissociated as described in Example 2 (Method A), and the cells resuspended in Neurosphere medium without EGF. The cell suspension was divided into a 24-well plate in triplicate and PACAP added to a final concentration of 100 nM. After 7 days, the neurospheres were split into single cells, as described in Example 1 (Method A), but in the absence of EGF. The cells were replated as single cells, PACAP added to 100 nM and incubated a further 7 days. The cells were passaged one further time, and plated as single cells in Neurosphere medium supplemented with 1% Fetal Calf Serum (Gibco) and 100 nM PACAP (Bachem) onto poly-D-lysine plates. The cells were incubated over-night in which time they adhered to the poly-D-lysine plates and the medium was changed to Neurosphere medium supplemented with 100 nM PACAP38, but absent of Fetal Calf Serum. The cells were cultured for a further 3 days, after which they were washed twice in PBS (Gibco) and fixed for 15 min at room temperature with 4% Formaldehyde (Sigma) and permeabilised for 20 minutes at room temperature in 0,1% Triton X-100 (Sigma) in PBS. After fixation and permeabilisation the cells were labelled with mouse monoclonal anti β-III Tubulin (1:1000 Promega), rabbit anti GFAP (1:500 Sigma), and mouse anti CNPase (1:500 Sigma). Primary antibodies were visualized with anti mouse Texas-Red and anti rabbit FITC (1:500 Vector Laboratories). All antibodies were diluted in PBS with 0,1% Triton X-l00.
# [3] = test system: differentiating neural stem cells; assay: Intracellular ATP assay, differentiating adult mouse NSC, adherent culture; assay type: cell-based; details: varying concentrations, adherent conditions, 3 days, relative to control, dose-dependent
# Description: Adult mouse NSC were cultivated from the anterior lateral wall of the lateral ventricle of 5-6 week old mice as described in Example 2 (Method A).
# Mouse neurospheres, cultured as described above, from passage 2, were seeded in DMEM/F12 supplemented with B27 and 1% Fetal Calf Serum into a 96-well plate coated with poly-D-lysine as single cells (30000 cells/well) and cultured over-night. The following day the medium was replaced with Neurosphere medium and PACAP added to the concentrations indicated. After 3 days incubation, intracellular ATP was measured using the ATP-SL kit from BioThema, Sweden, according to the manufacturer's instructions.
# CREB phosphorylation = assay: Western blot of phosphorylated CREB, differentiating adult mouse NSC, adherent; assay type: cell-based; details: 10 nM PACAP
# Description: Adult mouse NSC and aHNSC were prepared and cultured as stated in Example 5 (Method A & B) and Example 2 (Method A), respectively. Cultures were exposed to 10 nM PACAP for the times indicated. After treatment, the cells were lysed in lysis buffer, as shown in Patrone et al. (Patrone, Andersson et al. 1999). DNA content was detemined by the use of a Pico Green-kit for ds DNA quantitation of cell extracts. Total protein measurements were performed with Nano Orange-kit. Equal amounts of protein were run on a gradient gel 4-12% Bis-Tris gel (NuPage/Mops buffer) and transferred to a nitrocellulose membrane. Western blot was performed and phosphorylated CREB was labelled using a rabbit anti phospho-CREB (1:1000, Upstate biotechnology), a secondary anti rabbit HRP antibodies (1:10.000). Phosphorylated CREB protein bands (43 kD) were detected using the ECL-kit (Amersham).
substance,measurement,setting,value
pituitary adenylate cyclase-activating polypeptide [PACAP],sizes and number of neurospheres,primary adult NSC [1],observably greater than that of the control
same,multiply-passaged neurospheres compared to EGF-treated neurospheres,primary adult NSC [2],no relevant differences
same,self-renewal (secondary and tertiary neurospheres),primary adult NSC [2]; absence of other mitogens,retained their ability to self-renew
same,"multipotentiality (β-III Tubulin, GFAP, CNPase immunoreactivity)",primary adult NSC [2]; spontaneous differentiation on poly-D-lysine,retaining the potential of generating all the cells of the CNS
same,"intracellular ATP levels, and hence cell number",[3],statistically significant increase in intracellular ATP levels
same,CREB phosphorylation,CREB phosphorylation; 15 min exposure,upregulated
same,CREB phosphorylation,CREB phosphorylation; 240 min,slightly above basal levels
